Legend:
Assay in all cases: KinomeScan kinase profiling
Assay type in all cases: binding
Conditions in all cases: 10 μM
JNK3 = biological target: T1, JNK3 (Homo sapiens, UniProt P53779)
T1 construct: purchased Ambit Biosciences
Excerpt: (§1) The selectivity of a given CK1α, CK1α-CK1δ, CK1α-CK1ε or CK1α-CK1δ-CK1ε inhibitor compound can be determined by testing the compound against a panel of known kinases. An example of such a kinase profiling technology is the “KinomeScan” from Ambit Biosciences in which compounds can be screened for their modulatory activities against more than 200 known kinases.

CLK3 = biological target: T2, CLK3 (Homo sapiens, UniProt P49761)
T2 construct: purchased Ambit Biosciences (San Diego, Calif.)
Excerpt: as §1

NEK9 = NEK9 (Homo sapiens, UniProt Q8TD19)
Chain of NEK9 (Q8TD19 whole entry): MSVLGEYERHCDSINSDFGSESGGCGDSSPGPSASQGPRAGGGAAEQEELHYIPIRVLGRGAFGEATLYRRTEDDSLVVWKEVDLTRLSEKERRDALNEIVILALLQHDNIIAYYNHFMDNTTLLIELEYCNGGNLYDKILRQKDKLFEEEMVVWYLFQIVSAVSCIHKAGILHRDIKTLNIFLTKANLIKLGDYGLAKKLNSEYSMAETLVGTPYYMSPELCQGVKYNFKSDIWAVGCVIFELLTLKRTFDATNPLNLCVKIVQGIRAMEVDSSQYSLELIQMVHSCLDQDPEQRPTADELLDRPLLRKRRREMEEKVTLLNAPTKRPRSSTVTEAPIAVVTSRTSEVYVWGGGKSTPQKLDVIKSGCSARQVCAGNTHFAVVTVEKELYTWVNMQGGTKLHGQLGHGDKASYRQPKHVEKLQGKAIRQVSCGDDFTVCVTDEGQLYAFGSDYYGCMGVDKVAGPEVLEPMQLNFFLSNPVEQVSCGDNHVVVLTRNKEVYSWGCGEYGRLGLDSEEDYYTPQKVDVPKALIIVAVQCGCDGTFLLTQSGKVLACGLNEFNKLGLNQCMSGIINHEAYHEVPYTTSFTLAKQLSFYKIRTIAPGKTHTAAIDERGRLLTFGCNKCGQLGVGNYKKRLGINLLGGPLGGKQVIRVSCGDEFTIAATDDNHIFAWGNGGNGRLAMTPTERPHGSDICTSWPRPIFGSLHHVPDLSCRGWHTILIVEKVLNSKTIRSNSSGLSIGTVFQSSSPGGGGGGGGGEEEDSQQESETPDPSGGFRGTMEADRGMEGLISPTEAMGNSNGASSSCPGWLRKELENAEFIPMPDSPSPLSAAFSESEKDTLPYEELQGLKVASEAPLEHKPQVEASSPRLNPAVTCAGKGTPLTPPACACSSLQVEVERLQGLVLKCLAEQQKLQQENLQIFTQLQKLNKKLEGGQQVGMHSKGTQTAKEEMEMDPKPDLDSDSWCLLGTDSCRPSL
Excerpt: as §1

CSNK2A1 = biological target: T3, CSNK2A1 (Homo sapiens, UniProt P68400)
T3 construct: purchased Ambit Biosciences (San Diego, Calif.)
Excerpt: as §1

TNIK = biological target: T4, TNIK (Homo sapiens, UniProt Q9UKE5)
T4 construct: purchased Ambit Biosciences
Excerpt: as §1

CAMK2G = biological target: T5, CAMK2G (Homo sapiens, UniProt Q13555)
T5 construct: purchased Ambit Biosciences
Excerpt: as §1

PDGFRA = PDGFRA (Homo sapiens, UniProt P16234)
Chain of PDGFRA (P16234 24-1089): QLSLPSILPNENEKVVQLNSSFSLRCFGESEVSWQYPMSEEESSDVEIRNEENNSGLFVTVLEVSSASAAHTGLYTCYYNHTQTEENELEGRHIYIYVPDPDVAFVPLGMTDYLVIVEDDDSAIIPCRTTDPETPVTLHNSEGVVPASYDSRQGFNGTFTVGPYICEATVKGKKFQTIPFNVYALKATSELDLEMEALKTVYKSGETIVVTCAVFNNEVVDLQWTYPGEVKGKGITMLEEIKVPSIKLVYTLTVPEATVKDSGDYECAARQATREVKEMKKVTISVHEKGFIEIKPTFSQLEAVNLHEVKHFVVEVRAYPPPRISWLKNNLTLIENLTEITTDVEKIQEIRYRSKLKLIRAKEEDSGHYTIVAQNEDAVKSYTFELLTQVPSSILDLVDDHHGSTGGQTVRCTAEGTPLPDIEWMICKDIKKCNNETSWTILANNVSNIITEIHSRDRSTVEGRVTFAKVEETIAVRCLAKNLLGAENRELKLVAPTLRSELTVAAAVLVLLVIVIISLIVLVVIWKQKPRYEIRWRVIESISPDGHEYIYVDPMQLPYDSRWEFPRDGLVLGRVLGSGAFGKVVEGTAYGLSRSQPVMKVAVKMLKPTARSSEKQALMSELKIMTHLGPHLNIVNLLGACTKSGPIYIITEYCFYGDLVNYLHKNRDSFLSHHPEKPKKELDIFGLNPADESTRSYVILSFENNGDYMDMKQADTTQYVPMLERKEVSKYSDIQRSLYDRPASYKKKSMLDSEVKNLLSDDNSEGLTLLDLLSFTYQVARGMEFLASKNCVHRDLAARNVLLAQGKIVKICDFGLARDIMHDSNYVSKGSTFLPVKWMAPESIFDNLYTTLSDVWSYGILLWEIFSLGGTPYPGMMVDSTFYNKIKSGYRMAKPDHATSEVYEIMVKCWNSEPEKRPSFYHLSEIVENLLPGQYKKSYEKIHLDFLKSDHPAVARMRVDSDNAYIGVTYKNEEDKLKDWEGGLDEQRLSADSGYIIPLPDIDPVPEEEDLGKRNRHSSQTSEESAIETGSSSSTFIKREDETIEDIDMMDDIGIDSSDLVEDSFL
Excerpt: as §1

MAP3K4 = MAP3K4 (Homo sapiens, UniProt Q9Y6R4)
Excerpt: as §1

CAMK2B = biological target: T6, CAMK2B (Homo sapiens, UniProt Q13554)
T6 construct: purchased Ambit Biosciences
Excerpt: as §1

BTK = biological target: T7, BTK (Homo sapiens, UniProt Q06187)
T7 construct: purchased Ambit Biosciences
Excerpt: as §1

AURKC = biological target: T8, AURKC (Homo sapiens, UniProt Q9UQB9)
T8 construct: purchased Ambit Biosciences
Excerpt: as §1

CAMK2D = biological target: T9, CAMK2D (Homo sapiens, UniProt Q13557)
T9 construct: purchased Ambit Biosciences
T9 sequence (Q13557 whole entry): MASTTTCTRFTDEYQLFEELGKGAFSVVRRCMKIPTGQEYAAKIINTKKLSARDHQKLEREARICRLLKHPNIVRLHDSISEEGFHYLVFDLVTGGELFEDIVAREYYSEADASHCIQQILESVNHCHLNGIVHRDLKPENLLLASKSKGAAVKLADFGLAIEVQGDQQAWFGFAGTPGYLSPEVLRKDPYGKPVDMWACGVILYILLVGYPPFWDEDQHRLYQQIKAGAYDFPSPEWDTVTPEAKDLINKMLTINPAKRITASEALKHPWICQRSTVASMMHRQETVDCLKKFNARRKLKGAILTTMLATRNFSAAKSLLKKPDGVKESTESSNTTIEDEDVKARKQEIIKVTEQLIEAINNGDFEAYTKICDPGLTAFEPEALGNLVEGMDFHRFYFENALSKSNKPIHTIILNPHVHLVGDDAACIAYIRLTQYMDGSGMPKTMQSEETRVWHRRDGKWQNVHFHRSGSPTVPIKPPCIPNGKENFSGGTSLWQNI
Excerpt: as §1

TTK = biological target: T10, TTK (Homo sapiens, UniProt P33981)
T10 construct: purchased Ambit Biosciences
Excerpt: as §1

CSNK1G1 = biological target: T11, CSNK1G1 (Homo sapiens, UniProt Q9HCP0)
T11 construct: purchased Ambit Biosciences (San Diego, Calif.)
Excerpt: as §1

RPS6KA5 = biological target: T12, RPS6KA5 (Homo sapiens, UniProt O75582)
T12 construct: purchased Ambit Biosciences
Excerpt: as §1

EPHA7 = biological target: T13, EPHA7 (Homo sapiens, UniProt Q15375)
T13 construct: purchased Ambit Biosciences (San Diego, Calif.)
Excerpt: as §1

NEK2 = NEK2 (Homo sapiens, UniProt P51955)
Chain of NEK2 (P51955 whole entry): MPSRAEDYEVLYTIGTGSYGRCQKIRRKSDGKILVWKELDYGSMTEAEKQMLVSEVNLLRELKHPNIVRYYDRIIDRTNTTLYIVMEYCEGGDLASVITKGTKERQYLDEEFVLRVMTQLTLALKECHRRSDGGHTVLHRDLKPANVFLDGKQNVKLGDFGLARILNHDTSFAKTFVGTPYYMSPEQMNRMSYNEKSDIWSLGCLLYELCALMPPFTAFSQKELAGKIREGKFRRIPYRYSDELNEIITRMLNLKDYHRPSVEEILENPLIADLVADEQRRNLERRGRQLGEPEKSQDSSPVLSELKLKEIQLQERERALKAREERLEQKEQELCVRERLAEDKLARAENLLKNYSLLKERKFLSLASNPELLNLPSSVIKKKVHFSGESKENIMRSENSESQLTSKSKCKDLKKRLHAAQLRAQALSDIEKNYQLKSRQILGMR
Excerpt: as §1

SRC = biological target: T14, SRC (Homo sapiens, UniProt P12931)
T14 construct: purchased Ambit Biosciences
Excerpt: as §1

CAMK1 = biological target: T15, CAMK1 (Homo sapiens, UniProt Q14012)
T15 construct: purchased Ambit Biosciences
Excerpt: as §1

PAK1 = PAK1 (Homo sapiens, UniProt Q13153)
Excerpt: as §1

AKT1 = biological target: T16, AKT1 (Homo sapiens, UniProt P31749)
T16 construct: purchased Ambit Biosciences
Excerpt: as §1

EPHB1 = biological target: T17, EPHB1 (Homo sapiens, UniProt P54762)
T17 construct: purchased Ambit Biosciences (San Diego, Calif.)
Excerpt: as §1

CAMKK2 = biological target: T18, CAMKK2 (Homo sapiens, UniProt Q96RR4)
T18 construct: purchased Ambit Biosciences (San Diego, Calif.)
T18 sequence (Q96RR4 whole entry): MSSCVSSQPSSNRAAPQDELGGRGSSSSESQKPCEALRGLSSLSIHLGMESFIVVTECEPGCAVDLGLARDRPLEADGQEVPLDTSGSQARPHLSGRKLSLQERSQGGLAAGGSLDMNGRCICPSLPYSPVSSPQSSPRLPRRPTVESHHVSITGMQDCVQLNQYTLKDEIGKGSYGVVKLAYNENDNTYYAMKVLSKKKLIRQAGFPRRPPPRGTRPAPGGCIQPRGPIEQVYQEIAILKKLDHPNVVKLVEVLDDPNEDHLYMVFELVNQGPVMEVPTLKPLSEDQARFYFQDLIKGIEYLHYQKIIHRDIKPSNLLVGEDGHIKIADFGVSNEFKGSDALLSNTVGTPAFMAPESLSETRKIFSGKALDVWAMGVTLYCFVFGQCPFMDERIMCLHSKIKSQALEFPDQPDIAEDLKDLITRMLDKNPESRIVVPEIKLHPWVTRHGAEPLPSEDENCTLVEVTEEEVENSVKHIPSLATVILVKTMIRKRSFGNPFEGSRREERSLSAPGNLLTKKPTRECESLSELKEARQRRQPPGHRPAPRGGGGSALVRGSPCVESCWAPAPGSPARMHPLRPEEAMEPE
Excerpt: as §1

PAK7/PAK5 = PAK7/PAK5 (Homo sapiens, UniProt Q9P286)
Excerpt: as §1

EPHA5 = biological target: T19, EPHA5 (Homo sapiens, UniProt P54756)
T19 construct: purchased Ambit Biosciences (San Diego, Calif.)
Excerpt: as §1

ABL2 = biological target: T20, ABL2 (Homo sapiens, UniProt P42684)
T20 construct: purchased Ambit Biosciences
Excerpt: as §1

EPHA4 = biological target: T21, EPHA4 (Homo sapiens, UniProt P54764)
T21 construct: purchased Ambit Biosciences (San Diego, Calif.)
Excerpt: as §1

STK36 = biological target: T22, STK36 (Homo sapiens, UniProt Q9NRP7)
T22 construct: purchased Ambit Biosciences
Excerpt: as §1

STK16 = biological target: T23, STK16 (Homo sapiens, UniProt O75716)
T23 construct: purchased Ambit Biosciences
Excerpt: as §1

EPHA6 = biological target: T24, EPHA6 (Homo sapiens, UniProt Q9UF33)
T24 construct: purchased Ambit Biosciences (San Diego, Calif.)
Excerpt: as §1

BMX = biological target: T25, BMX (Homo sapiens, UniProt P51813)
T25 construct: purchased Ambit Biosciences
Excerpt: as §1

FRK = biological target: T26, FRK (Homo sapiens, UniProt P42685)
T26 construct: purchased Ambit Biosciences
Excerpt: as §1

PIM2 = biological target: T27, PIM2 (Homo sapiens, UniProt Q9P1W9)
T27 construct: purchased Ambit Biosciences
Excerpt: as §1

ULK3(mouse) = biological target: T28, ULK3(mouse) (Mus musculus, UniProt Q3U3Q1)
T28 construct: purchased Ambit Biosciences
Excerpt: as §1

ABL1 = biological target: T29, ABL1 (Homo sapiens, UniProt P00519)
T29 construct: purchased Ambit Biosciences
Excerpt: as §1

INSR = biological target: T30, INSR (Homo sapiens, UniProt P06213)
T30 construct: purchased Ambit Biosciences
Excerpt: as §1

FES = biological target: T31, FES (Homo sapiens, UniProt P07332)
T31 construct: purchased Ambit Biosciences
Excerpt: as §1

p38-gamma = p38-gamma (Homo sapiens, UniProt P53778)
Chain of p38-gamma (P53778 whole entry): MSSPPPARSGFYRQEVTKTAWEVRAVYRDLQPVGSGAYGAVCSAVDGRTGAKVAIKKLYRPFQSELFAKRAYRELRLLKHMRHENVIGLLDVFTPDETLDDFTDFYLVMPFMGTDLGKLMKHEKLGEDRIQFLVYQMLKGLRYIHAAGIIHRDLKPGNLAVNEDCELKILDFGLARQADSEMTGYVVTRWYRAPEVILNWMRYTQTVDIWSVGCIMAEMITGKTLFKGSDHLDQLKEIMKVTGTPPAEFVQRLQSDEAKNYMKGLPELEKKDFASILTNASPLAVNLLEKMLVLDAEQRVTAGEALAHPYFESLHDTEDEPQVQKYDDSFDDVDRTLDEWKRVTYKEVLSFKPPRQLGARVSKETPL
Excerpt: as §1

PDGFRB = PDGFRB (Homo sapiens, UniProt P09619)
Chain of PDGFRB (P09619 33-1106): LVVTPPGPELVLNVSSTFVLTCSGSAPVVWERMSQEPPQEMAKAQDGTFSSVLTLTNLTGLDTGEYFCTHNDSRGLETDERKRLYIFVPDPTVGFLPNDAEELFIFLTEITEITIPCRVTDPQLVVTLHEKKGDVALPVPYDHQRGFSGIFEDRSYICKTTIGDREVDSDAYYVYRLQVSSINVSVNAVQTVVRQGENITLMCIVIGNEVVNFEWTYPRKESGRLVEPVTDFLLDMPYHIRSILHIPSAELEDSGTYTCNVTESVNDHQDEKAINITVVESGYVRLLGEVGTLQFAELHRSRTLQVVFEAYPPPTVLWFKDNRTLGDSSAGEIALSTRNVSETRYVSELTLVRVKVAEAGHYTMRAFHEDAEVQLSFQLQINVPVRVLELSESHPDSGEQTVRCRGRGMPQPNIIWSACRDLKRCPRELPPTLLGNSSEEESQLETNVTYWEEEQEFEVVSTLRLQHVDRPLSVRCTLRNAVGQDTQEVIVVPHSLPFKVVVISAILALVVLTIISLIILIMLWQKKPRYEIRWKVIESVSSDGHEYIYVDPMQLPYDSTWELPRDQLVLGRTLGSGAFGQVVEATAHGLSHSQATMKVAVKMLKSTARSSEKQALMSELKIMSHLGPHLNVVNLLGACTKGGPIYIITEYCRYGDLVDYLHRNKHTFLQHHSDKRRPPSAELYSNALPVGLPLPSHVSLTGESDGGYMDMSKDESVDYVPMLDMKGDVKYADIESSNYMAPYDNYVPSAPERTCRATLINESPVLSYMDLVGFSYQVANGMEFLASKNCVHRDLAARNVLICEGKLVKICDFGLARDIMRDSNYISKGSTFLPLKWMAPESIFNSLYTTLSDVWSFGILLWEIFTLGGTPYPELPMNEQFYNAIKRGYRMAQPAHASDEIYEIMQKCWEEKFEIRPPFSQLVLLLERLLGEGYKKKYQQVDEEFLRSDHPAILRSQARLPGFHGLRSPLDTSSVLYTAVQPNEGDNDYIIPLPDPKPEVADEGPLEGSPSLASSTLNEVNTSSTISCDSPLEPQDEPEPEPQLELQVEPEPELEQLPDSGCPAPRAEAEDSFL
Excerpt: as §1

Measured: % Binding

COc1cc(OC)c(C=C2C(O)=Nc3ccccc32)c(OC)c1 [IC261, 3-[(2,4,6-trimethoxyphenyl)methylidenyl]-indolin-2-one]
<50%: all assays above

NC(=O)c1cc(-c2ccncc2)c[nH]1 [Compound A, 4-Pyridin-4-yl-1H-pyrrole-2-carboxylic acid amide]
<50%: all assays above
